Results from US20220288004A1, “TREATMENT AND PREVENTION OF AGING RELATED-DISEASE AND/OR AGING BY THE INHIBITION OF SPHINGOLIPIDS” (ECOLE POLYTECHNIQUE FEDERALE DE LAUSANNE (EPFL), priority 2019, published 2022).

Experiments:
Format in all cases: in vivo, mouse
[1] = system: quadriceps muscle of aged C57Bl/6JRj mice; assay: Quadriceps transcript profiling using RNA sequencing; conditions: aged myriocin vs DMSO treated mice
Protocol: To identify biological pathways whose modulation could explain improved muscle function upon myriocin treatment, transcriptomes of quadriceps muscle of aged myriocin and DMSO treated mice using RNA sequencing were compared. Gene set enrichment analysis (GSEA) ranking transcripts based on their fold change were performed.
Quadriceps transcript profiling using RNA sequencing. Quadriceps muscles were collected and snap-frozen in liquid nitrogen from C57Bl/6JRj mice undergoing intraperitoneal myriocin treatment for 10 weeks on a chow diet starting at the age of 18 months. RNA was isolated using Direct-zol RNA kit (Zymo, Irvine, Calif.). RNA quality was assessed using Agilent 2100 BioAnalyzer (Agilent, Santa Clara, Calif.). Samples with RIN≥8, 28S/18S≥1.0, and c≥20 ng/μL were included in analyses. […] Sequencing libraries were prepared by BGI genomics using the DNBsea™ technology. Paired end sequencing with 100 cycles was performed using the BGISEQ-500 instrument. After removal of adaptor sequences and low quality reads, at least 56 million reads per sample was obtained. SOAPnuke was used to obtain clean reads (parameters -l 15, -q 0.2, -n 0.05). Reads were mapped using STAR aligner version 2.5.2b using the mouse GRCm38 genome assembly and the release 91 GTF annotation from Ensembl. Htseq-count version 0.6.0 was used to count the number of reads mapping to genes (mode=union, type=exon, idattr=gene_id). Transcript displaying higher expression than log 2(CPM+1)>0.5 in at least 3 samples were included in analyses. Differential gene expression analysis and expression normalization was performed using voom, ‘variance modeling at the observational level’, adjusting for sacrifice date. At individual gene level, no gene passed the multiple testing correction threshold. Benjamini-Hochberg correction for multiple testing was used. For gene set enrichment analysis using gene ontology (GO) categories, transcripts were ordered according to their log 2-transformed fold change, and 100,000 permutations were used. Adjusted p-value<0.05 was considered significant.

[2] = system: mdx mice; assay: Myriocin treatment of mdx mice (Duchenne muscular dystrophy model)
Protocol: Next the activity of sphingolipid synthesis was inhibited in a mouse model of Duchenne muscular dystrophy. Mdx, a dystrophin deficient mouse model, was treated with myriocin (0.4 mg/kg/3 times a week intraperitoneally) for 2 months. […] Furthermore, after downhill running, plasma levels of creatine kinase (CK) were lower in myriocin treated mice compared to controls (FIG. 8f).
Endurance running test. The exercise regimen on a treadmill commenced at a speed of 9 cm/s. As the mice were aged, an inclination of 0 degrees was used. Mice were considered to be exhausted, and removed from the treadmill if they received 7 or more shocks (0.2 mA) per minute for two consecutive minutes. The distance traveled and time before exhaustion were registered as maximal running distance and time.
Grip strength. Muscle strength was assessed by grip strength test. The grip strength of each mouse was measured on a pulldown grid assembly connected to a grip strength meter (Columbus Instruments). The mouse was drawn along a straight line parallel to the grip, providing peak force. The experiment was repeated three times, and the highest value was included in the analysis.
Rotarod test. The rotarod test measures muscle strength, coordination, and endurance. Mice were left undisturbed in the room for 30 min. The speed of the rotating cylinder (rotarod) increased from 0 to 40 rpm in 5 min. Each mouse had 3 trials per day for 3 consecutive days. The latency and speed the mouse reached it passive rotation or fall from the rotor was recorded, and the latency and speed of the best trial of the second day is presented.

[3] = system: aged C57Bl/6JRj mice; assay: Ad libitum locomotion during 10 min in aged mice; conditions: myriocin 0.4 mg/kg i.p. 3 times per week, 5 months
Protocol: FIG. 9. Sphingolipid depletion protects against frailty phenotypes. (a) Distance moved in 10 mins. (b) Average velocity during 10 minutes of observation. (c) Glucose tolerance test. (d) Time exploring familiar and novel objects. (e) Recognition index. Aged (18-month-old) C57BL/6JRj mice were treated with intraperitoneal injections of myriocin (MYR) for 5 months @ 0.4 mg/kg/3 times per week.
Human frailty syndrome is characterized by weakness, decreased walking speed, exhaustion, weight loss, and low physical activity. […] Frailty predicts falls in older people. […] In object recognition test, myriocin treated mice spent more exploring both the familiar object and novel object as compared to their DMSO treated counterparts (FIG. 9d). Although this could be partly attributable to the higher physical activity of myriocin treated mice, the treated mice were more interested in the novel than familiar object as compared to untreated mice.

[4] = myriocin 0.4 mg/kg 3 times a week intraperitoneally, 2 months

SMILES: CCCCCCC(=O)CCCCCCC=CCC(O)C(O)C(N)(CO)C(=O)O (stereo not shown) [myriocin, 2-Amino-3,4-dihydroxy-2-(hydroxymethyl)-14-oxoicos-6-enoic acid]
- expression of Pax7 in quadriceps muscle [1]: upregulated
- most downregulated pathways (gene set enrichment analysis) ([1]; quadriceps RNA-seq): lipid metabolism and inflammation
- upregulated pathways (gene set enrichment analysis) ([1]; quadriceps RNA-seq): muscle contraction and differentiation
- Myog and Myf5 transcripts in skeletal muscle ([1]; quadriceps): upregulated
- plasma levels of creatine kinase (CK) ([2]; after downhill running, myriocin 2 months vs controls): lower
- grip strength [2, 4]: improved
- performance in rotarod test [2, 4]: improved performance
- performance in uphill running test [2, 4]: improved performance
- ad libitum walking speed (average velocity during 10 minutes) [3]: increased
- distance travelled ad libitum during 10 min [3]: longer
